Measured values: patent publication US8361968B2 (Takeda Pharmaceutical Company Limited, priority 2002, dated 2013)
Numbered stars: 1 amine (or outer) side, 2 acyl side, 3 side chain; on linkers, the order of the positions; unused ones are H or OH. Square brackets hold non-standard residues; d marks the D form. Peptide text beside a SMILES is read from it. X1 = O=C([C@H](Cc1ccc2ccccc2n1)N[*:1])[*:2]; Arg(Me) = CNC(=N)NCCC[C@H](N)C(=O)O; Cha = N[C@@H](CC1CCCCC1)C(=O)O; azaGly = NNC(=O)O

Molecular target: hOT7T175 (Homo sapiens, UniProt Q969F8, L364H)
Assay: Intracellular Ca ion level-increasing activity using FLIPR in hOT7T175/CHO
Assay type: cell-based
Parameters: expressed in transfected cells; host or cells: CHO/dhfr- cells, obtained from ATCC
Settings: relative, Metastin (1-54) = 1
Protocol: Assay for Intracellular Ca Ion Level-Increasing Activity Using Flipr
In accordance with the method described in JPA 2000-312590, the intracellular Ca ion level-increasing activity was measured using FLIPR.
The stable expression cell line hOT7T175 was acquired by transduction of expression plasmid pAK-rOT175 for animal cells into CHO/dhff cells, using CellPhect Transfection Kit (Amersham Pharmacia Biotech, Inc.). First, 240 μL of Buffer A (attached to CellPhect Transfection Kit) was added to 9.6 μg of plasmid DNA dissolved in 240 μl of distilled water, followed by stirring. After settling the mixture for 10 minutes, 480 μL of Buffer B (attached to CellPhect Transfection Kit) was added to the mixture, which was vigorously stirred to form DNA-containing liposomes. Then, 4×10^5 CHO/dhff cells (obtained from ATCC) were inoculated on a 60 mm Petri dish. […] After culturing the cells at 37° C. for 6 hours in 5% carbon dioxide gas, the cells were washed twice with serum-free Ham's F-12 medium and 3 ml of 15% glycerol was added to the cells in the Petri dish to treat for 2 minutes. The cells were again washed twice with serum-free Ham's F-12 medium followed by incubation in Ham's F-12 medium supplemented with 10% fetal bovine serum at 37° C. for 15 hours in 5% carbon dioxide gas. The cells were dispersed by trypsin treatment and recovered from the Petri dish. The recovered cells were inoculated on a 6-well plate in 1.25×10^4 cells/well and incubation was initiated at 37° C. in Dulbecco's modified Eagle medium (DMEM) medium (Nissui Seiyaku Co., Ltd.) containing 10% dialyzed fetal bovine serum (JRH BIOSCIENCES, Inc.) under 5% carbon dioxide gas. […] The medium was exchanged on Days 1 and 2 to remove the cells died.
The intracellular Ca ion level-increasing activity of the synthetic peptide in hOT7T175/CHO was determined using FLIPR (Molecular Devices, Inc.).
hOT7T175/CHO was subcultured in DMEM supplemented with 10% dialyzed fetal bovine serum (hereinafter abbreviated as dFBS) and provided for the experiment (hereinafter abbreviated as 10% dFBS/DMEM). The hOT7T175/CHO was suspended in 10% dFBS-DMEM in 15×10^4 cells/ml. The suspension was inoculated on a 96-well plate for FLIPR (Black Plate Clear Bottom, Coster, Inc.) at 200 μL each (3.0×10^4 cells/200 μL/well), followed by incubation at 37° C. overnight in a 5% CO2 incubator (hereinafter simply referred to as the cell plate). Then, 21 ml of HANKS/HBSS (9.8 g of HANKS, 0.35 g of sodium hydrogencarbonate, 20 ml of 1M HEPES; after adjusting the pH to 7.4 with 1N sodium hydroxide, the mixture was sterilized by filtration), 210 μl of 250 mM Probenecid and […] of fetal bovine serum (FBS) were mixed (HANKS/HBSS-Probenecid-FBS).
Furthermore, 2 vials of Fluo3-AM (50 μug/vial) were dissolved in 21 μL of dimethylsulfoxide and 21 μL of 20% Pluronic acid. The resulting solution was added to and mixed with 10 ml of HANKS/HBSS-Probenecid-FBS described above. After the culture medium was removed, the mixture was dispensed onto the cell plate in 100 μL each/well, followed by incubation at 37° C. for an hour in a 5% CO2 incubator (pigment loading). The peptide was dissolved in dimethylsulfoxide in 1×10^−3 M. The peptide solution was diluted with HANKS/HBSS containing 2.5 mM Probenecid, 0.2% BSA and 0.1% CHAPS.

Chain of hOT7T175 (Q969F8 whole entry L364H): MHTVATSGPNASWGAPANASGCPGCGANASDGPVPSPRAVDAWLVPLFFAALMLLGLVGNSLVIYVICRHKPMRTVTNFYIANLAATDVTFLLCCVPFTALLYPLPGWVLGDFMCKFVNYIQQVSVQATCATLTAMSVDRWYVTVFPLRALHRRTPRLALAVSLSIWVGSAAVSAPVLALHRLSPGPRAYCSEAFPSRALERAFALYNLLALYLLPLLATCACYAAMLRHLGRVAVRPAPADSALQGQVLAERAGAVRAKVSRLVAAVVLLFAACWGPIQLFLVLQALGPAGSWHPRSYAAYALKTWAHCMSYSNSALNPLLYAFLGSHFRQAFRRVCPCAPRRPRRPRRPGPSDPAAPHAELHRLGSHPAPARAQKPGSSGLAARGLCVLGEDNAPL

Specific Activity (intracellular Ca ion level-increasing activity) | SMILES
5 | CC(C)C[C@H](NC(=O)NNC(=O)[C@H](Cc1ccccc1)NC(=O)[C@H](CO)NC(=O)[C@H](CC(N)=O)NC(=O)[C@H](Cc1c[nH]c2ccccc12)NC(=O)[C@H](CC(N)=O)NC(=O)[C@@H](N)Cc1ccc(O)cc1)C(=O)N[C@@H](CCCNC(=N)N)C(=O)N[C@@H](Cc1ccccc1)C(N)=O [Compound No. 176, Tyr-Asn-Trp-Asn-Ser-Phe-AzaGly-Leu-Arg-Phe-NH2]
1 | CCNC(=N)NCCC[C@H](NC(=O)[C@H](CC(C)C)NC(=O)CNC(=O)[C@H](Cc1ccccc1)NC(=O)[C@H](CO)NC(=O)[C@H](CC(N)=O)NC(=O)[C@H](Cc1c[nH]c2ccccc12)NC(=O)[C@H](CC(N)=O)NC(=O)[C@H](N)Cc1ccc(O)cc1)C(=O)N[C@@H](Cc1ccccc1)C(N)=O [Compound No. 192]
001 | CCCNC(=N)NCCC[C@H](NC(=O)[C@H](CC(C)C)NC(=O)CNC(=O)[C@H](Cc1ccccc1)NC(=O)[C@H](CO)NC(=O)[C@H](CC(N)=O)NC(=O)[C@H](Cc1c[nH]c2ccccc12)NC(=O)[C@H](CC(N)=O)NC(=O)[C@H](N)Cc1ccc(O)cc1)C(=O)N[C@@H](Cc1ccccc1)C(N)=O [Compound No. 193]
1 | CC(=O)NC(=N)NCCC[C@H](NC(=O)[C@H](CC(C)C)NC(=O)CNC(=O)[C@H](Cc1ccccc1)NC(=O)[C@H](CO)NC(=O)[C@H](CC(N)=O)NC(=O)[C@H](Cc1c[nH]c2ccccc12)NC(=O)[C@H](CC(N)=O)NC(=O)[C@H](N)Cc1ccc(O)cc1)C(=O)N[C@@H](Cc1ccccc1)C(N)=O [Compound No. 194]
5 | CNC(=N)NCCC[C@H](NC(=O)[C@H](CC(C)C)NC(=O)[C@H](C)NC(=O)[C@H](Cc1ccccc1)NC(=O)[C@H](CO)NC(=O)[C@H](CC(N)=O)NC(=O)[C@H](Cc1c[nH]c2ccccc12)NC(=O)[C@H](CC(N)=O)NC(=O)[C@H](N)Cc1ccc(O)cc1)C(=O)N[C@@H](Cc1ccccc1)C(N)=O [Compound No. 204] (H-[dY]NWNSFAL[Arg(Me)]F-NH2)
10 | CNC(=N)NCCC[C@H](NC(=O)[C@H](CC(C)C)NC(=O)CNC(=O)[C@H](Cc1ccccc1)NC(=O)[C@H](CO)NC(=O)[C@H](CC(N)=O)NC(=O)[C@H](Cc1c[nH]c2ccccc12)NC(=O)[C@H](CCC(N)=O)NC(=O)[C@H](N)Cc1ccc(O)cc1)C(=O)N[C@@H](Cc1ccccc1)C(N)=O [Compound No. 214] (H-[dY]QWNSFGL[Arg(Me)]F-NH2)

More lines, now with the values behind:

SMILES | Specific Activity (intracellular Ca ion level-increasing activity)
CNC(=N)NCCC[C@H](NC(=O)[C@H](CC(C)C)NC(=O)NNC(=O)[C@H](Cc1ccccc1)NC(=O)[C@H](CO)NC(=O)[C@H](CC(N)=O)NC(=O)[C@H](CC1CCCCC1)NC(=O)[C@H](CC(N)=O)NC(=O)[C@H](N)Cc1ccc(O)cc1)C(=O)N[C@@H](Cc1ccccc1)C(N)=O [Compound No. 190, D-Tyr-Asn-Cha-Asn-Ser-Phe-AzaGly-Leu-Arg(Me)-Phe-NH2] (H-[dY]N[Cha]NSF[azaGly]L[Arg(Me)]F-NH2) | 10
CC(C)C[C@H](NC(=O)CNC(=O)[C@H](Cc1ccccc1)NC(=O)[C@H](CO)NC(=O)[C@H](CC(N)=O)NC(=O)[C@H](Cc1c[nH]c2ccccc12)NC(=O)[C@H](CC(N)=O)NC(=O)[C@@H](N)Cc1ccc(O)cc1)C(=O)N[C@@H](CCCNC(=N)N)C(=O)N[C@@H](Cc1ccc(F)c(F)c1)C(N)=O [Compound No. 198] | 10
CC(C)C[C@H](NC(=O)CNC(=O)[C@H](Cc1ccccc1)NC(=O)[C@H](CO)NC(=O)[C@H](CC(N)=O)NC(=O)[C@H](Cc1c[nH]c2ccccc12)NC(=O)[C@H](CC(N)=O)NC(=O)[C@@H](N)Cc1ccc(O)cc1)C(=O)N[C@@H](CCCNC(=N)N)C(=O)N[C@@H](Cc1ccc2ccccc2n1)C(N)=O [Compound No. 201] (H-YNWNSFGLR[X1]-NH2) | 1
CNC(=N)NCCC[C@H](NC(=O)[C@H](CC(C)C)NC(=O)CNC(=O)[C@H](CC1CCCCC1)NC(=O)[C@H](CO)NC(=O)[C@H](CC(N)=O)NC(=O)[C@H](Cc1c[nH]c2ccccc12)NC(=O)[C@H](CC(N)=O)NC(=O)[C@H](N)Cc1ccc(O)cc1)C(=O)N[C@@H](Cc1ccccc1)C(N)=O [Compound No. 203, D-Tyr-Asn-Trp-Asn-Ser-Cha-Gly-Leu-Arg(Me)-Phe-NH2] (H-[dY]NWNS[Cha]GL[Arg(Me)]F-NH2) | 10
CC[C@H](C)[C@H](NC(=O)[C@H](CC(N)=O)NC(=O)[C@H](N)Cc1ccc(O)cc1)C(=O)N[C@@H](CC(N)=O)C(=O)N[C@@H](CO)C(=O)N[C@@H](Cc1ccccc1)C(=O)NCC(=O)N[C@@H](CC(C)C)C(=O)N[C@@H](CCCNC(=N)NC)C(=O)N[C@@H](Cc1ccccc1)C(N)=O [Compound No. 206] (H-[dY]NINSFGL[Arg(Me)]F-NH2) | 10
CNC(=N)NCCC[C@H](NC(=O)[C@H](CC(C)C)NC(=O)CNC(=O)[C@H](Cc1ccccc1)NC(=O)[C@H](CO)NC(=O)[C@@H](NC(=O)[C@H](Cc1c[nH]c2ccccc12)NC(=O)[C@H](CC(N)=O)NC(=O)[C@H](N)Cc1ccc(O)cc1)[C@@H](C)O)C(=O)N[C@@H](Cc1ccccc1)C(N)=O [Compound No. 208] (H-[dY]NWTSFGL[Arg(Me)]F-NH2) | 1
CNC(=N)NCCC[C@H](NC(=O)[C@H](CC(C)C)NC(=O)CNC(=O)[C@H](Cc1ccccc1)NC(=O)[C@H](CO)NC(=O)[C@H](C)NC(=O)[C@H](Cc1c[nH]c2ccccc12)NC(=O)[C@H](CC(N)=O)NC(=O)[C@H](N)Cc1ccc(O)cc1)C(=O)N[C@@H](Cc1ccccc1)C(N)=O [Compound No. 210] (H-[dY]NWASFGL[Arg(Me)]F-NH2) | 1
CNC(=N)NCCC[C@H](NC(=O)[C@H](CC(C)C)NC(=O)CNC(=O)[C@H](Cc1ccccc1)NC(=O)[C@@H](NC(=O)[C@H](CC(N)=O)NC(=O)[C@H](Cc1c[nH]c2ccccc12)NC(=O)[C@H](CC(N)=O)NC(=O)[C@H](N)Cc1ccc(O)cc1)[C@@H](C)O)C(=O)N[C@@H](Cc1ccccc1)C(N)=O [Compound No. 211] (H-[dY]NWNTFGL[Arg(Me)]F-NH2; N-terminus assumed) | 10
CNC(=N)NCCC[C@H](NC(=O)[C@H](CC(C)C)NC(=O)CNC(=O)[C@H](Cc1ccccc1)NC(=O)[C@H](C)NC(=O)[C@H](CC(N)=O)NC(=O)[C@H](Cc1c[nH]c2ccccc12)NC(=O)[C@H](CC(N)=O)NC(=O)[C@H](N)Cc1ccc(O)cc1)C(=O)N[C@@H](Cc1ccccc1)C(N)=O [Compound No. 212] (H-[dY]NWNAFGL[Arg(Me)]F-NH2) | 10
CNC(=N)NCCC[C@H](NC(=O)[C@H](CC(C)C)NC(=O)CNC(=O)[C@H](Cc1ccccc1)NC(=O)[C@H](CO)NC(=O)[C@H](CC(N)=O)NC(=O)[C@H](Cc1c[nH]c2ccccc12)NC(=O)[C@@H](NC(=O)[C@H](N)Cc1ccc(O)cc1)[C@@H](C)O)C(=O)N[C@@H](Cc1ccccc1)C(N)=O [Compound No. 215] (H-[dY]TWNSFGL[Arg(Me)]F-NH2; N-terminus assumed) | 10
CNC(=N)NCCC[C@H](NC(=O)[C@H](CC(C)C)NC(=O)CNC(=O)[C@H](Cc1ccccc1)NC(=O)[C@H](CO)NC(=O)[C@H](CC(N)=O)NC(=O)[C@H](Cc1c[nH]c2ccccc12)NC(=O)[C@H](N)CC(N)=O)C(=O)N[C@@H](Cc1ccccc1)C(N)=O [Compound No. 216] (H-[dN]WNSFGL[Arg(Me)]F-NH2; N-terminus assumed) | 1
